We go through two molecules from ChEMBL document CHEMBL4145569, “Hypoxia-Protective Azaphilone Adducts from Peyronellaea glomerata” (J Nat Prod, 2018).

Assay [1] can be described thus: Antioxidant activity assessed as DPPH radical scavenging activity incubated for 30 mins under dark condition. Type of assay: functional. In general terms: The DPPH test is a chemical assay of radical scavenging.
Assay [2] can be described thus: Antioxidant activity assessed as ABTS radical scavenging activity incubated for 6 mins under dark condition. Type of assay: functional.
Assay [3] deals with HUVEC. Description: Protection against hypoxia/reoxygenation-induced cell injury in HUVEC assessed as late apoptotic cells at 1 uM treated 1 hr prior to hypoxia induction for 12 hrs followed by compound redosing and subsequent reoxygenation for 3 hrs by annexin-V-FITC/propidium iodide staining based flow cytometric analysis (reference value: 22.8%). Type of assay: functional, Homo sapiens.

Assay [4] relates to HUVEC. Description: Protection against hypoxia/reoxygenation-induced cell injury in HUVEC assessed as late apoptotic cells at 5 uM treated 1 hr prior to hypoxia induction for 12 hrs followed by compound redosing and subsequent reoxygenation for 3 hrs by annexin-V-FITC/propidium iodide staining based flow cytometric analysis (reference value: 22.8%). The format is functional, Homo sapiens. (In flow cytometry, cells or beads pass a laser one at a time.)

Assay [5] relates to HUVEC. Description: Protection against hypoxia/reoxygenation-induced cell injury in HUVEC assessed as cell viability at 5 uM treated 1 hr prior to hypoxia induction for 12 hrs followed by compound redosing and subsequent reoxygenation for 3 hrs by MTT assay (reference value: 35%). The format is functional. The settings on record: Homo sapiens, read-out: Activity.

For `CC[C@@H](C)[C@]12OC(=O)[C@]3(O)C[C@H](O1)c1c(cc(O)c(C)c1O)[C@]23C`, the EC50 in assay [1] and in assay [2] was 83.5 to 126 µM each time.

Consider `CC[C@@H](C)[C@@]12OC(=O)[C@@]3(O)C[C@@H](O1)c1c(cc(O)c(C)c1O)[C@@]23C`, for which the EC50 in assay [1] and in assay [2] was 83.5 to 126 µM in each case. Moreover, the Activity in the assay with HUVEC [3] is 9.8%; in the assay on HUVEC [4], 9.4%. Moreover, the viability at 5 µM in the assay on HUVEC [5] was 70%.
